In experiment [1] the target is T1, PfNT1 (Plasmodium falciparum, UniProt Q8IDM6).
T1 construct: expressed in transfected cells; host or cells: Xenopus laevis oocytes (stage V-VI), cRNA-injected
Nature of the experiment: [3H]VF-6 transport (efflux) from injected Xenopus oocytes. The experiment is classed as cell-based. To be noted: trans-inhibition, treatment 45 mM.

The target of experiment [2] is PfCRT^3D7 (Plasmodium falciparum, UniProt Q8IBZ9). Nature of the experiment: cell-based. The method, then: (§1) The characterisation of [^3H]VF-6 transport via 23 different field and laboratory-derived isoforms of PfCRT was undertaken with oocytes two days post-cRNA-injection (Figs. 3a–j, 4; Supplementary Fig. 2). The oocytes were injected with 25 nL of ND96 buffer (pH 5.5) supplemented with [^3H]VF-6 and unlabelled VF-6 to achieve estimated intracellular concentrations of 1.4 and 200 μM, respectively. Ten oocytes that had resealed at the injection site were transferred to a 5 mL polystyrene round bottom tube (In Vitro Technologies) and washed with 3.5 mL of ND96 buffer before being transferred to separate wells of a white 96-well plate (PerkinElmer). This treatment served to establish the amount of radioactivity within the oocytes immediately prior to the commencement of the transport assay. Another 10 resealed oocytes were transferred to a 5 mL tube and washed with 3.5 mL of ND96 buffer. […] The assay was terminated by removing the reaction buffer with a pipette and washing the oocytes twice with 3.5 mL of ice-cold ND96 buffer. Each oocyte was transferred to a separate well of a white 96-well plate. The oocytes were lysed by the addition of 20 μL of 10% (w/v) SDS and overnight incubation at room temperature. The lysed oocyte was then combined with 150 μL of MicroScint-40 microscintillant (PerkinElmer), the plate covered with a TopSeal-A (PerkinElmer), and the radioactivity measured with a MicroBeta^2 microplate liquid scintillation analyser (PerkinElmer). VF-6 transport was calculated by subtracting the amount of radioactivity (measured in counts per minute) present within the oocytes at the end of the incubation from that measured in the oocytes sampled immediately before the commencement of the assay. The pH-dependence of transport (Fig. 3c) was determined by injecting the oocytes with [^3H]VF-6 suspended in 25 nL ND96 buffer adjusted to pH 5.0, 5.5, 6.0 or 7.0, which corresponded to the injection of 2.5–250 fmol of H^+. The dependence of [^3H]VF-6 transport on Na^+ or Cl^− was examined by injecting the oocytes with [^3H]VF-6 suspended in the control ND96 buffer (pH 5.5) or a version of this buffer that lacked either Na^+ or Cl^− (Supplementary Fig. 2). […] The dependence of peptide transport on Ca^2+ was determined by injecting the oocytes with [^3H]VF-6 suspended in ND96 buffers that contained different concentrations of Ca^2+ (0–5 mM; Supplementary Fig. 2). […] The dependence of PfCRT-mediated transport on the membrane potential was examined by using (1) Na^+ ionophore III in conjunction with the Na^+ gradients listed in Supplementary Data 7 and (2) Cl^− ionophore III in conjunction with the Cl^− gradients listed in Supplementary Data 7 to clamp the membrane potential of the oocyte from −80 to +80 mV. […] The kinetic parameters for VF-6 transport via different isoforms of PfCRT (Figs. 3e and 4a) were determined in SigmaPlot Windows Version 11.0 by a least-squares fit of the Michaelis–Menten equation to the data.
(§2) A subset of assays measured the ability of solutes known to interact with PfCRT to either cis-inhibit, trans-inhibit or trans-stimulate [^3H]VF-6 transport. These experiments involved adding these solutes to either the cis- or trans-side of the membrane relative to [^3H]VF-6. […] At least five independent experiments were performed (on different days and using oocytes from different frogs), and within each experiment measurements were made from ten oocytes per treatment.

For experiment [3], the target named is PfCRT^Dd2 (Plasmodium falciparum, UniProt Q9N623, A220S/I356T/K76T/M74I/N326S/N75E/Q271E/R371I). Nature of the experiment: cell-based. To be noted: trans-inhibition, treatment 45 mM. How it is done:
as §1, §2

The target in experiment [4] is PfCRT^Ecu1110 (Plasmodium falciparum, UniProt Q9N623, A220S/I356L/K76T/N326D). Nature of the experiment: cell-based. To be noted: trans-inhibition, treatment 45 mM. How it is done: as §1, §2
Setting [5] is: trans-inhibition, treatment 45 mM, Experiment 1.
The mark [6] stands for this setting: trans-inhibition, treatment 45 mM, Experiment 2.
The mark [7] stands for this setting: trans-inhibition, treatment 45 mM, Experiment 3.
Where [8] appears, read: trans-inhibition, treatment 45 mM, Experiment 4.
The mark [9] stands for this setting: trans-inhibition, treatment 45 mM, Experiment 5.

Where “and” joins values, the source holds several entries; their conditions need not be identical. Identical values can stand only once. Like-named read-outs stand apart in the source and are kept apart here. Where no end group is shown, it is not given here.

Chain of PfCRT^Dd2 (Q9N623 whole entry A220S/I356T/K76T/M74I/N326S/N75E/Q271E/R371I): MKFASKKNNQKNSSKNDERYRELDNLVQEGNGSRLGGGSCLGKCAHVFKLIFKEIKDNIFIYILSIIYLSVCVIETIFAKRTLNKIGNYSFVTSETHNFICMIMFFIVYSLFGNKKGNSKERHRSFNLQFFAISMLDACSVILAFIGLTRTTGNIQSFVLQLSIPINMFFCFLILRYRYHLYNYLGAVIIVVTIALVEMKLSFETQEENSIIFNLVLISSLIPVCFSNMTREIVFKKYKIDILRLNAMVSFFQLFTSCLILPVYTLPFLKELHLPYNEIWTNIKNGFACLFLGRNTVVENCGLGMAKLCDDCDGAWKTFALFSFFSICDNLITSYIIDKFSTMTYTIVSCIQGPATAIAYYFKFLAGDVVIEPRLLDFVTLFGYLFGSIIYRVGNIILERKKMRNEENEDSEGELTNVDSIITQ
Chain of PfCRT^3D7 (Q8IBZ9 59-398): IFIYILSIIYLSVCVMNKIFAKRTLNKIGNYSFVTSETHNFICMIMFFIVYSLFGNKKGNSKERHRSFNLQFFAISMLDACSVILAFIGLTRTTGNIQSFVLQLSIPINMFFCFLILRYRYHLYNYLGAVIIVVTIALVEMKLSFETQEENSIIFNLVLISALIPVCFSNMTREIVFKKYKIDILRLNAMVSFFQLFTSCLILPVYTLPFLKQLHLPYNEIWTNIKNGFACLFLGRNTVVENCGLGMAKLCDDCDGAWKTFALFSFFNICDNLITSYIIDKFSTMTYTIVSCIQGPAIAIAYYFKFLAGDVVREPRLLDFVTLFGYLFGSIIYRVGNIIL
Chain of PfCRT^Ecu1110 (Q9N623 whole entry A220S/I356L/K76T/N326D): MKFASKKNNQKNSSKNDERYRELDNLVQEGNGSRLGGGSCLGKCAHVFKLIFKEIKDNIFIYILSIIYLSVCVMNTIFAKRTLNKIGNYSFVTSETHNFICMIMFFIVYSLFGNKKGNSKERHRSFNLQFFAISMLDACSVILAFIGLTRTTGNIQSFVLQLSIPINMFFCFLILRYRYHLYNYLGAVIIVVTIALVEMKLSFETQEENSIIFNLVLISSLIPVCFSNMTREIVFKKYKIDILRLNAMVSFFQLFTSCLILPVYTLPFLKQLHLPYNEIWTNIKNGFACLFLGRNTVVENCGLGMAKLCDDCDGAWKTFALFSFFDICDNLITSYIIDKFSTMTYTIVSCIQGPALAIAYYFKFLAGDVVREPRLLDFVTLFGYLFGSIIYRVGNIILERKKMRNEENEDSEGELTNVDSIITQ
T1 sequence (Q8IDM6 whole entry): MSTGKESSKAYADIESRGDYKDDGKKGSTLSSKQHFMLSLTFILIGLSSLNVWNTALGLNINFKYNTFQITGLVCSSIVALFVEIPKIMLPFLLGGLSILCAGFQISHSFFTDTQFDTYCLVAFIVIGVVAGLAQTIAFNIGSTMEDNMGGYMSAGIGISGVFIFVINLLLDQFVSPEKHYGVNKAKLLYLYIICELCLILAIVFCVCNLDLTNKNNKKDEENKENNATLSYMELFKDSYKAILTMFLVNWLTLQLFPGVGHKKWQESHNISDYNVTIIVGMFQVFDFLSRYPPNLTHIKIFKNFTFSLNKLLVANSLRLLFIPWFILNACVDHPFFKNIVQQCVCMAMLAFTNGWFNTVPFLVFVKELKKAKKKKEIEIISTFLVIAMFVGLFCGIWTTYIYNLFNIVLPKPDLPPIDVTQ

Take DPVN [VF-6-derived peptide]: the “[3H]VF-6 transport, PfNT1 (% PfCRT3D7 control)” value in experiment [1] (Experiment 1) came out at 3.26 % PfCRT3D7 control; in experiment [1] (Experiment 2), 3.27 % PfCRT3D7 control; in experiment [1] (Experiment 3), 3.74 % PfCRT3D7 control; in experiment [1] (Experiment 4), 3.42 % PfCRT3D7 control; in experiment [1] (Experiment 5), 3.57 % PfCRT3D7 control. The “[3H]VF-6 transport, PfCRT3D7 (% PfCRT3D7 control)” value in experiment [2] was 26.43 % PfCRT3D7 control and 27.43 % PfCRT3D7 control and 23.23 % PfCRT3D7 control and 20.32 % PfCRT3D7 control and 20.85 % PfCRT3D7 control. Besides, the “[3H]VF-6 transport, PfCRTDd2 (% PfCRT3D7 control)” value was 7.83 % PfCRT3D7 control in experiment [3] (Experiment 1); 7.93 % PfCRT3D7 control in experiment [3] (Experiment 2); 7.34 % PfCRT3D7 control in experiment [3] (Experiment 3); 7.75 % PfCRT3D7 control in experiment [3] (Experiment 4); 8.53 % PfCRT3D7 control in experiment [3] (Experiment 5). Also, the “[3H]VF-6 transport, PfCRTEcu1110 (% PfCRT3D7 control)” value in experiment [4] (Experiment 1) stood at 9.56 % PfCRT3D7 control; in experiment [4] (Experiment 2) it was 9.46 % PfCRT3D7 control; in experiment [4] (Experiment 3), 8.39 % PfCRT3D7 control; in experiment [4] (Experiment 4) it was 9.45 % PfCRT3D7 control; in experiment [4] (Experiment 5), 9.93 % PfCRT3D7 control.

With DPVNF [VF-6-derived peptide], the “[3H]VF-6 transport, PfNT1 (% PfCRT3D7 control)” value in experiment [1] (Experiment 1) is 3.26 % PfCRT3D7 control; in experiment [1] (Experiment 2), 3.36 % PfCRT3D7 control; in experiment [1] (Experiment 3), 3.25 % PfCRT3D7 control; in experiment [1] (Experiment 4), 3.79 % PfCRT3D7 control; in experiment [1] (Experiment 5), 3.25 % PfCRT3D7 control. For the same substance, the “[3H]VF-6 transport, PfCRT3D7 (% PfCRT3D7 control)” value in experiment [2] (setting [5]) turned out to be 21.64 % PfCRT3D7 control; in experiment [2] (setting [6]), 22.13 % PfCRT3D7 control; in experiment [2] (setting [7]) it was 19.38 % PfCRT3D7 control; in experiment [2] (setting [8]), 18.32 % PfCRT3D7 control; in experiment [2] (setting [9]), 19.24 % PfCRT3D7 control. Besides, the “[3H]VF-6 transport, PfCRTDd2 (% PfCRT3D7 control)” value is given as 9.35 % PfCRT3D7 control in experiment [3] (Experiment 1); 8.35 % PfCRT3D7 control in experiment [3] (Experiment 2); 9.55 % PfCRT3D7 control in experiment [3] (Experiment 3); 8.26 % PfCRT3D7 control in experiment [3] (Experiment 4); 9.66 % PfCRT3D7 control in experiment [3] (Experiment 5). For the same substance, the “[3H]VF-6 transport, PfCRTEcu1110 (% PfCRT3D7 control)” value worked out at 7.36 % PfCRT3D7 control in experiment [4] (Experiment 1); 8.38 % PfCRT3D7 control in experiment [4] (Experiment 2); 7.23 % PfCRT3D7 control in experiment [4] (Experiment 3); 8.43 % PfCRT3D7 control in experiment [4] (Experiment 4); 7.77 % PfCRT3D7 control in experiment [4] (Experiment 5).

On to VDPVNF [VF-6], for which the “[3H]VF-6 transport, PfNT1 (% PfCRT3D7 control)” value worked out at 3.58 % PfCRT3D7 control in experiment [1] (Experiment 1); 3.28 % PfCRT3D7 control in experiment [1] (Experiment 2); 3.22 % PfCRT3D7 control in experiment [1] (Experiment 3); 4.26 % PfCRT3D7 control in experiment [1] (Experiment 4); 4.11 % PfCRT3D7 control in experiment [1] (Experiment 5). Moreover, the “[3H]VF-6 transport, PfCRT3D7 (% PfCRT3D7 control)” value in experiment [2] (setting [5]) came to 17.84 % PfCRT3D7 control; in experiment [2] (setting [6]), 18.04 % PfCRT3D7 control; in experiment [2] (setting [7]) it was 20.27 % PfCRT3D7 control; in experiment [2] (setting [8]), 18.57 % PfCRT3D7 control; in experiment [2] (setting [9]) it was 17.74 % PfCRT3D7 control.

Source of the values: publication PMC7413254 (Nature Communications, 2020).
